31 compounds from patent US9765049B2, “N-cycloalkyl-N-[(fusedphenyl)methylene]-(thio)carboxamide derivatives” (BAYER CROPSCIENCE AG, priority 2013, dated 2017) can be followed below.

A short description of data set [1]: log P by HPLC on reversed-phase column (C 18), EEC Directive 79/831 Annex V.A8. The class given is physicochemical. The settings on record: for logP: Table 1, 40° C. On the procedure: In table 1, the log P values were determined in accordance with EEC Directive 79/831 Annex V.A8 by HPLC (High Performance Liquid Chromatography) on a reversed-phase column (C 18), using the method described below: Temperature: 40° C.; Mobile phases: 0.1% aqueous formic acid and acetonitrile; linear gradient from 10% acetonitrile to 90% acetonitrile. Calibration was carried out using unbranched alkan-2-ones (comprising 3 to 16 carbon atoms) with known log P values (determination of the log P values by the retention times using linear interpolation between two successive alkanones). lambda-max-values were determined using UV-spectra from 200 nm to 400 nm and the peak values of the chromatographic signals.

For a further data set, the system named is Pyrenophora teres. Description: In vivo preventive test on Pyrenophora teres (net blotch on barley). The settings on record: 500 ppm, barley plants, preventive spray, evaluated 14 days after inoculation. On the procedure:
(§1) Example D: In Vivo Preventive Test on Pyrenophora teres (Net Blotch on Barley) [table] The active ingredients are made soluble and homogenized in a mixture of Dimethyl sulfoxide/Acetone/Tween®80 and then diluted in water to the desired concentration. The young plants of barley are treated by spraying the active ingredient prepared as described above. Control plants are treated only with an aqueous solution of Acetone/Dimethyl sulfoxide/Tween® 80. After 24 hours, the plants are contaminated by spraying the leaves with an aqueous suspension of Pyrenophora teres spores.

The next data set concerns Sphaerotheca fuliginea. Description: In vivo preventive test on Sphaerotheca fuliginea (powdery mildew on cucurbits). The settings on record: 500 ppm, gherkin plants, preventive spray, evaluated 15 days after inoculation. The protocol: (§2) Example F: In Vivo Preventive Test on Sphaerotheca fuliginea (Powdery Mildew on Cucurbits) [table] The active ingredients are made soluble and homogenized in a mixture of Dimethyl sulfoxide/Acetone/Tween®80 and then diluted in water to the desired concentration. The young plants of gherkin are treated by spraying the active ingredient prepared as described above. Control plants are treated only with an aqueous solution of Acetone/Dimethyl sulfoxide/Tween® 80. After 24 hours, the plants are contaminated by spraying the leaves with an aqueous suspension of Sphaerotheca fuliginea spores.

The test system of another data set is Septoria tritici. Description: In vivo preventive test on Septoria tritici (wheat). The conditions noted are these: 500 ppm, wheat plants, preventive spray, evaluated 24 days after inoculation. On the procedure:
as §1, with “E:” for “D:”, “Septoria tritici (Wheat)” for “Pyrenophora teres (Net Blotch on Barley)”, “wheat” for “barley”, “Septoria tritici” for “Pyrenophora teres”, “spores. The contaminated wheat plants are incubated for 72 hours at 18° C. and at 100% relative humidity and then for 21 days at 20° C. and at 90% relative humidity.” for “spores.”

A further data set relates to Puccinia recondita. Kind of data set: In vivo preventive test on Puccinia recondita (brown rust on wheat). The settings on record: 500 ppm, wheat plants, preventive spray, evaluated 11 days after inoculation. The protocol:
Example C: In Vivo Preventive Test on Puccinia recondita (Brown Rust on Wheat) [table] The active ingredients are made soluble and homogenized in a mixture of Dimethyl sulfoxide/Acetone/Tween®80 and then diluted in water to the desired concentration. The young plants of wheat are treated by spraying the active ingredient prepared as described above. Control plants are treated only with an aqueous solution of Acetone/Dimethyl sulfoxide/Tween® 80. After 24 hours, the plants are contaminated by spraying the leaves with an aqueous suspension of Puccinia recondita spores.

The test system of the next data set is Botrytis cinerea. Kind of data set: In vivo preventive test Botrytis cinerea (grey mould). The conditions noted are these: gherkin plants. On the procedure:
as §2, with “B:” for “F:”, “Botrytis cinerea (Grey Mould)” for “on Sphaerotheca fuliginea (Powdery Mildew on Cucurbits)”, “Botrytis cinerea” for “Sphaerotheca fuliginea”, “spores. The contaminated gherkin plants are incubated for 4 to 5 days at 17° C. and at 90% relative humidity.” for “spores.”

Data set [2] relates to Fusarium nivale (var. majus). Description: Efficacy against Fusarium nivale (var. majus) (wheat), curative test. The settings on record: evaluated 5 days after inoculation. The class given is in vivo. The protocol: Example I: Efficacy Against Fusarium nivale (Var. Majus) (Wheat) [table] To produce a suitable preparation of active compound, 1 part by weight of active compound or active compound combination is mixed with the stated amounts of solvent and emulsifier, and the concentrate is diluted with water to the desired concentration. […] After the spray coating has dried on, the plants remain in a greenhouse under translucent incubation cloches at a temperature of approximately 10° C. and a relative atmospheric humidity of approximately 100%.

Where [3] appears, read: HPLC, 0.1% aqueous formic acid and acetonitrile.
[4] abbreviates: reversed-phase HPLC column (C 18), Table 3 (aldehydes of formula IV), HPLC, 0.1% aqueous formic acid and acetonitrile, read-out: logP.
Where [5] appears, read: reversed-phase HPLC column (C 18), Table 2 (amines of formula IIa), HPLC, 0.1% aqueous formic acid and acetonitrile, read-out: logP.
[6] abbreviates: Table B, 500 ppm, preventive spray, evaluated 4 to 5 days after inoculation.

Like-named read-outs stand apart in the source and are kept apart here.

In the case of `Cn1nc(C(F)F)c(C(=O)N(Cc2cccc3c2C2C=CC3O2)C2CC2)c1Cl` (stereo not shown) [I.13], the logP in data set [1] (setting [3]) is listed as 2.42.
With `Cn1nc(C(F)F)c(C(=O)N(Cc2cccc3c2C2C=CC3O2)C2CC2)c1F` (stereo not shown) [I.14], the Efficacy was determined as 75% with Pyrenophora teres, 94% in the data set on Sphaerotheca fuliginea and 98% in the data set with Septoria tritici. The compound also returned a logP in data set [1] (setting [3]) of 2.31.
As to `Cn1cc(C(=O)N(Cc2cccc3c2C2C=CC3O2)C2CC2)c(C(F)(F)F)c1` (stereo not shown) [I.17], the logP in data set [1] (setting [3]) was determined as 2.70.
Regarding `Cn1nc(C(F)F)c(C(=O)N(Cc2cccc3c2C2C=CC3C2)C2CC2)c1Cl` (stereo not shown) [I.05], the Efficacy is recorded as 72% in the data set on Sphaerotheca fuliginea, 81% in the data set on Septoria tritici and 94% with Puccinia recondita. The compound also gave a logP in data set [1] (setting [3]) of 3.70.
Turning to `O=Cc1cccc2c1C1C=CC2O1` (stereo not shown) [IV.5, 1,4-dihydro-1,4-epoxynaphthalene-5-carbaldehyde], the chromatographic logP in data set [1] (setting [4]) was found to be 1.5.
`Cn1nc(C(F)F)c(C(=O)N(Cc2cccc3c2C2CCC3C2=C(Cl)Cl)C2CC2)c1Cl` (stereo not shown) [I.06]: the Efficacy was found to be 71% with Pyrenophora teres, 95% in the data set with Sphaerotheca fuliginea and 71% with Septoria tritici. In data set [1] (setting [3]), the logP came out at 4.66.
With `c1cc(CNC2CC2)c2c(c1)C1CCC2C1` (stereo not shown) [IIa.1, N-(1,2,3,4-tetrahydro-1,4-methanonaphthalen-5-ylmethyl)cyclopropanamine], in data set [1] (setting [5]), the chromatographic logP was determined as 1.31.
`ClC(Cl)=C1C2CCC1c1c(CNC3CC3)cccc12` (stereo not shown) [IIa.3, N-{[9-(dichloromethylene)-1,2,3,4-tetrahydro-1,4-methanonaphthalen-5-yl]methyl}-cyclopropanamine] gave a chromatographic logP in data set [1] of 1.95.
In the case of `Cn1cc(C(=O)N(Cc2cccc3c2C2C=CC3O2)C2CC2)c(C(F)F)n1` (stereo not shown) [I.15], the Efficacy with Sphaerotheca fuliginea worked out at 72%. This compound displayed a logP in data set [1] (setting [3]) of 2.05.
As to `O=Cc1cccc2c1C1CCC2O1` (stereo not shown) [IV.4, 1,2,3,4-tetrahydro-1,4-epoxynaphthalene-5-carbaldehyde], in data set [1] (setting [4]), the chromatographic logP was found to be 1.66.
`Cc1cc(C(=O)N(Cc2cccc3c2C2C=CC3O2)C2CC2)c(C)o1` (stereo not shown) [I.16]: in data set [1] (setting [3]), the log partition coefficient (logP) is 2.82. Besides, the Efficacy in the data set on Septoria tritici was determined as 81%.
In the case of `Cn1nc(C(F)F)c(C(=O)N(Cc2cccc3ccccc23)C2CC2)c1F` [CMP1, N-cyclopropyl-3-(difluoromethyl)-5-fluoro-1-methyl-N-(1-naphthylmethyl)-1H-pyrazole-4-carboxamide, reference compound], the Efficacy is recorded as 10% with Botrytis cinerea (Table B2, dose 100 ppm) and 70% with Botrytis cinerea (Table B2, dose 500 ppm).
As for `O=Cc1cccc2c1C1CCC2C1` (stereo not shown) [IV.1, 1,2,3,4-tetrahydro-1,4-methanonaphthalene-5-carbaldehyde], the chromatographic logP in data set [1] (setting [4]) stood at 3.13.
`Cc1cc(C(=O)N(Cc2cccc3c2C2CCC3O2)C2CC2)c(C)o1` (stereo not shown) [I.22] displayed a logP in data set [1] (setting [3]) of 3.04.
Take `Cn1nc(C(F)F)c(C(=O)N(Cc2cccc3c2C2CCC3O2)C2CC2)c1F` (stereo not shown) [I.12]: the Efficacy with Sphaerotheca fuliginea is 100%; in the data set on Botrytis cinerea (setting [6]), 99%; in the data set on Septoria tritici, 100%; with Puccinia recondita it was 89%. For the same compound, the logP in data set [1] (setting [3]) is given as 2.55.
As for `C1=CC2CC1c1cccc(CNC3CC3)c12` (stereo not shown) [IIa.2, N-(1,4-dihydro-1,4-methanonaphthalen-5-ylmethyl)cyclopropanamine], the chromatographic logP in data set [1] (setting [5]) came out at 1.13.
With `O=Cc1cccc2c1C1CCC2C1=C(Cl)Cl` (stereo not shown) [IV.3, 9-(dichloromethylene)-1,2,3,4-tetrahydro-1,4-methanonaphthalene-5-carbaldehyde], the chromatographic logP in data set [1] was 4.09.
Take `Cc1nn(C)c(F)c1C(=O)N(C1CC1)C(C)c1cccc2c1CCC(C)(C)C2` (stereo not shown) [CMP5, N-cyclopropyl-N-[1-(6,6-dimethyl-5,6,7,8-tetrahydronaphthalen-1-yl)ethyl]-5-fluoro-1,3-dimethyl-1H-pyrazole-4-carboxamide]: the Efficacy is on record as 44% in data set [2] (dose 250 ppm) and 56% in data set [2] (dose 500 ppm).
Regarding `Cc1nn(C)c(F)c1C(=O)N(Cc1cccc2c1CCCC2)C1CC1` [CMP2, N-cyclopropyl-5-fluoro-1,3-dimethyl-N-(5,6,7,8-tetrahydronaphthalen-1-ylmethyl)-1H-pyrazole-4-carboxamide, reference compound], the Efficacy in the data set with Botrytis cinerea (Table B2, dose 100 ppm) was found to be 0%; in the data set with Botrytis cinerea (Table B2, dose 500 ppm), 35%.
In the case of `Cn1cc(C(=S)N(Cc2cccc3c2C2CCC3C2=C(Cl)Cl)C2CC2)c(C(F)F)n1` (stereo not shown) [I.10], the Efficacy with Sphaerotheca fuliginea is reported as 100%; in the data set with Botrytis cinerea (setting [6]), 100%; with Septoria tritici, 100%; with Puccinia recondita it was 88%. The compound further gave a logP in data set [1] (setting [3]) of 4.83.
As to `O=Cc1cccc2c1C1C=CC2C1` (stereo not shown) [IV.2, 1,4-dihydro-1,4-methanonaphthalene-5-carbaldehyde], in data set [1] (setting [4]), the chromatographic logP came to 2.73.
In data set [1] (setting [3]), `Cn1nc(C(F)F)c(C(=S)N(Cc2cccc3c2C2C=CC3O2)C2CC2)c1Cl` (stereo not shown) [I.20] gave a logP of 3.17.
Take `Cn1cc(C(=O)N(Cc2cccc3c2CCCC3)C2CC2)c(C(F)F)n1` [CMP3, N-cyclopropyl-3-(difluoromethyl)-1-methyl-N-(5,6,7,8-tetrahydronaphthalen-1-ylmethyl)-1H-pyrazole-4-carboxamide, reference compound]: the Efficacy in the data set with Botrytis cinerea (Table B2, dose 100 ppm) was determined as 0%; in the data set with Botrytis cinerea (Table B2, dose 500 ppm), 0%.
`Cn1cc(C(=O)N(Cc2cccc3c2C2C=CC3C2)C2CC2)c(C(F)F)n1` (stereo not shown) [I.03]: the values for the Efficacy in the data set with Pyrenophora teres and with Sphaerotheca fuliginea were 88% and 98%, respectively. The logP in data set [1] (setting [3]) came out at 3.19.
The compound `Cc1nc(C(F)F)c(C(=O)N(Cc2cccc3c2C2C=CC3O2)C2CC2)s1` (stereo not shown) [I.18] came in with a logP in data set [1] (setting [3]) of 2.51.
As for `c1cc(CNC2CC2)c2c(c1)C1CCC2O1` (stereo not shown) [IIa.4, N-(1,2,3,4-tetrahydro-1,4-epoxynaphthalen-5-ylmethyl)cyclopropanamine], the chromatographic logP in data set [1] (setting [5]) amounted to 0.45.
Consider `CC1CCc2cccc(C(C)N(C(=O)c3c(C(F)F)nn(C)c3F)C3CC3)c2C1` (stereo not shown) [50 from WO-2010/130767, N-cyclopropyl-3-(difluoromethyl)-5-fluoro-1-methyl-N-[1-(7-methyl-5,6,7,8-tetrahydronaphthalen-1-yl)ethyl]-1H-pyrazole-4-carboxamide], for which the Efficacy in data set [2] (dose 250 ppm) and in data set [2] (dose 500 ppm) was 67% throughout.
Turning to `C1=CC2OC1c1cccc(CNC3CC3)c12` (stereo not shown) [IIa.5, N-(1,4-dihydro-1,4-epoxynaphthalen-5-ylmethyl)cyclopropanamine], in data set [1] (setting [5]), the chromatographic logP is 0.13.
In turn, `Cn1nc(C(F)F)c(C(=S)N(Cc2cccc3c2C2C=CC3O2)C2CC2)c1F` (stereo not shown) [I.19] displayed a logP in data set [1] (setting [3]) of 3.04.
As to `Cc1nn(C)c(F)c1C(=O)N(C1CC1)C(C)c1cccc2c1CCCC2` (stereo not shown) [CMP4, N-cyclopropyl-5-fluoro-1,3-dimethyl-N-[1-(5,6,7,8-tetrahydronaphthalen-1-yl)ethyl]-1H-pyrazole-4-carboxamide], the Efficacy was found to be 29% in data set [2] (dose 250 ppm) and 57% in data set [2] (dose 500 ppm).
As for `O=C(c1ccsc1Br)N(Cc1cccc2c1C1C=CC2O1)C1CC1` (stereo not shown) [I.21], the logP in data set [1] (setting [3]) is reported as 2.96.

As a reminder, the logP is the decadic logarithm of the partition coefficient of the neutral form, usually between octanol and water. A lower logP goes with lower lipophilicity.
